Assay results published in ChEMBL document CHEMBL1201862, “PubChem BioAssay data set” (2004).
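Assay format: 96-well plates, 48-hour exposure. Abbreviation: GI50, concentration required for 50% inhibition of growth.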 The source made the active and inactive calls. Rule as the data show it: active = GI50 up to about 1.1 µM and inactive = higher.

Tests used:
Assay in all cases: DTP human tumour cell line panel, 48 h
UACC-257 = tested on: UACC-257
Malme-3M = tested on: Malme-3M
K562 = tested on: K562
NCI-H23 = tested on: NCI-H23
HCT-15 = tested on: HCT-15
NCI-H226 = tested on: NCI-H226
KM12 = tested on: KM12
COLO 205 = tested on: COLO 205
SF-268 = tested on: SF-268
SF-539 = tested on: SF-539
NCI-H460 = tested on: NCI-H460
MDA-N = tested on: MDA-N
Hs-578T = tested on: Hs-578T
EKVX = tested on: EKVX
PC-3 = tested on: PC-3
HL-60 = tested on: HL-60
SK-MEL-2 = tested on: SK-MEL-2
A498 = tested on: A498
OVCAR-3 = tested on: OVCAR-3
RPMI-8226 = tested on: RPMI-8226

Compound	GI50 (UACC-257)	GI50 (Malme-3M)	GI50 (K562)	GI50 (NCI-H23)	GI50 (HCT-15) [µM]	GI50 (NCI-H226)	GI50 (KM12)	GI50 (COLO 205)	GI50 (SF-268)	GI50 (SF-539)	GI50 (NCI-H460)	GI50 (MDA-N)	GI50 (Hs-578T)	GI50 (EKVX)	GI50 (PC-3)	GI50 (HL-60)	GI50 (SK-MEL-2)	GI50 (A498)	GI50 (OVCAR-3)	GI50 (RPMI-8226)
CC1(C)CC(O)C(C)(C)[C@@H](O)C1 (stereo not given in full)	> 100 µM (inactive)	> 100 µM (inactive)	> 100 µM (inactive)	> 100 µM (inactive)	> 100	> 100 µM (inactive)	> 100 µM (inactive)	> 100 µM (inactive)	> 100 µM (inactive)	> 100 µM (inactive)	> 100 µM (inactive)	> 100 µM (inactive)	> 100 µM (inactive)	> 100 µM (inactive)	> 100 µM (inactive)	> 100 µM (inactive)	> 100 µM (inactive)			
O=c1oc2ccccc2c2c1Sc1ccccc1N2	> 100 µM (inactive)		> 100 µM (inactive)	74.8 µM (inactive)	36.2	82.4 µM (inactive)	70.5 µM (inactive)	> 100 µM (inactive)	56.6 µM (inactive)	> 100 µM (inactive)	92.9 µM (inactive)		> 100 µM (inactive)	62.2 µM (inactive)	> 100 µM (inactive)	> 100 µM (inactive)	2.58 µM (inactive)	> 100 µM (inactive)	68.9 µM (inactive)	47.2 µM (inactive)
COc1cc(Br)cc2cc(-c3cn4ccsc4n3)c(=O)oc12	37.6 µM (inactive)	91.2 µM (inactive)	32.1 µM (inactive)	39.1 µM (inactive)	33		18.9 µM (inactive)	57.3 µM (inactive)	34.3 µM (inactive)	36.2 µM (inactive)	32 µM (inactive)	17 µM (inactive)	41.5 µM (inactive)	29.2 µM (inactive)	25.2 µM (inactive)	29 µM (inactive)	58.9 µM (inactive)		35 µM (inactive)	33.2 µM (inactive)
CC1(C)C=N[N+]2(C)C3C=CC(CC3)C12 (stereo not given)	> 100 µM (inactive)	> 100 µM (inactive)	> 100 µM (inactive)	> 100 µM (inactive)	> 100	> 100 µM (inactive)	> 100 µM (inactive)	> 100 µM (inactive)	> 100 µM (inactive)	> 100 µM (inactive)	> 100 µM (inactive)			> 100 µM (inactive)		> 100 µM (inactive)	> 100 µM (inactive)	> 100 µM (inactive)	> 100 µM (inactive)	> 100 µM (inactive)
CC1(C)CN=C(Nc2ccc(Cl)cc2)S1	70 µM (inactive)	> 100 µM (inactive)	> 100 µM (inactive)	74.6 µM (inactive)	> 100	> 100 µM (inactive)	90.4 µM (inactive)	> 100 µM (inactive)	> 100 µM (inactive)	> 100 µM (inactive)		> 100 µM (inactive)	> 100 µM (inactive)	64 µM (inactive)	> 100 µM (inactive)	30.5 µM (inactive)	> 100 µM (inactive)		71.9 µM (inactive)	52.6 µM (inactive)
COC1=CC(=O)C(O)=C(CC2(C)C(C)CCC3(C)C2CCCC3(C)C)C1=O (stereo not given)	3.84 µM (inactive)	4.03 µM (inactive)	2.7 µM (inactive)	2.84 µM (inactive)	3.3	2.77 µM (inactive)	6.44 µM (inactive)	5.51 µM (inactive)	4.37 µM (inactive)	2.84 µM (inactive)	1.88 µM (inactive)			5.83 µM (inactive)		2.58 µM (inactive)	3.06 µM (inactive)	10.1 µM (inactive)	5.43 µM (inactive)	2.96 µM (inactive)
Cc1cc(C)cc(NC(=O)CCC(=O)C2CCC/C2=N\NC(=O)C(=O)NN)c1 (stereo not given)	> 100 µM (inactive)	> 100 µM (inactive)	> 100 µM (inactive)	> 100 µM (inactive)	> 100	> 100 µM (inactive)	> 100 µM (inactive)	> 100 µM (inactive)	> 100 µM (inactive)	> 100 µM (inactive)	> 100 µM (inactive)			> 100 µM (inactive)		> 100 µM (inactive)	> 100 µM (inactive)	> 100 µM (inactive)	> 100 µM (inactive)	> 100 µM (inactive)
CNc1ccc([S+]([O-])Nc2ccccc2)cc1 (stereo not given)	41.1 µM (inactive)	53.2 µM (inactive)	34.8 µM (inactive)	55.7 µM (inactive)	43.9	21.2 µM (inactive)	21.8 µM (inactive)	26.4 µM (inactive)	25.9 µM (inactive)	> 100 µM (inactive)	55.8 µM (inactive)	46.1 µM (inactive)	37.7 µM (inactive)	30.5 µM (inactive)		26.1 µM (inactive)	86.3 µM (inactive)		51.4 µM (inactive)	39.8 µM (inactive)
